Reference: patent US5364615A (priority 1992, dated 1994)

Key:
Pneumocystis carinii [1] = settings: cited from earlier work
Pneumocystis carinii [2] = settings: in vivo; cited from earlier work
[3] = Adverse reactions and toxicity during PCP therapy (Example 3); settings: inhaled pretreatment; 9 patients
Pneumocystis carinii [4] = assay: Randomized clinical trial of PCP prophylaxis (Example 8); format: in vivo, human
[5] = human, in vivo; cited from earlier work

## NCCC[C@](N)(C(=O)O)C(F)F [DFMO, α-difluoromethylornithine]
Pneumocystis carinii [1]; recent clinical studies
  clinical response: some clinical response
Pneumocystis carinii [2]
  efficacy in rat PCP model: hot efficacious

## CC(C)NCC(O)c1cc(O)cc(O)c1 (stereo not drawn) [metaproterenol]
[3]
  control of aerosol-related cough: in 9 patients cough was mild and controlled

## Cc1cn([C@H]2C[C@H](N=[N+]=[N-])[C@@H](CO)O2)c(=O)[nH]c1=O [zidovudine]
Pneumocystis carinii [4]; AZT use, Cox models, with aerosolized pentamidine
  reduction of PCP risk: two-fold
Pneumocystis carinii [4]; participants who had taken zidovudine, on aerosolized pentamidine, never taken: 67%
  mortality: 28%

## COc1cc(NCc2ccc3nc(N)nc(N)c3c2C)cc(OC)c1OC [trimetrexate]
[5]
  adverse reactions: Adverse reactions have been reported
Pneumocystis carinii [1]; human, in vivo
  relapse rate within one month: relapse rates within one month appear to be high

## Nc1ccc(S(=O)(=O)c2ccc(N)cc2)cc1 [Dapsone, diaminodiphenylsulfone]
Pneumocystis carinii [1]; dapsone alone
  failure rate for PCP: about 39%
Pneumocystis carinii [2]
  efficacy in rat PCP model: effective
